Measured values as given in ChEMBL document CHEMBL1151757, “Synthesis, radiosynthesis, and biological evaluation of fluorine-18-labeled 2beta-carbo(fluoroalkoxy)-3beta-(3'-((Z)-2-haloethenyl)phenyl)nortropanes: candidate radioligands for in vivo imaging of the serotonin transporter with positron emission tomography” (J Med Chem, 2008).

Experiments:
[1] = test system: Thalamus; experiment: Drug uptake in anesthetized cynomolgus monkey brain thalamus after 3.5 mins postinjection; type: ADME, organism-based, Macaca fascicularis; design: unit not given here; conditions: in vivo
[2] = test system: Medulla; experiment: Drug uptake in anesthetized cynomolgus monkey brain medulla after 135 mins postinjection; type: ADME, organism-based, Macaca fascicularis; conditions: in vivo, 2.25 h
[3] = test system: Thalamus; experiment: Drug uptake in anesthetized cynomolgus monkey brain thalamus after 235 mins postinjection; type: ADME, organism-based, Macaca fascicularis; design: unit not given here; conditions: in vivo
[4] = test system: Caudate; experiment: Drug uptake in anesthetized cynomolgus monkey brain caudate after 18.5 mins postinjection; type: ADME, organism-based, Macaca fascicularis, Caudate nucleus; conditions: in vivo
[5] = test system: Pons; experiment: Drug uptake in anesthetized cynomolgus monkey brain pons after 55 mins postinjection; type: ADME, organism-based, Macaca fascicularis; conditions: in vivo
[6] = Drug uptake in anesthetized cynomolgus monkey brain occipital lobe after 135 mins postinjection; type: ADME, organism-based, Macaca fascicularis; conditions: in vivo, 2.25 h
[7] = Drug uptake in anesthetized cynomolgus monkey brain occipital lobe after 65 mins postinjection; type: ADME, organism-based, Macaca fascicularis; conditions: in vivo
[8] = Ratio of drug uptake in medulla to cerebellum in anesthetized cynomolgus monkey after 95 mins postinjection; type: ADME, organism-based, Macaca fascicularis; conditions: in vivo
[9] = Ratio of drug uptake in putamen to cerebellum in anesthetized cynomolgus monkey after 0.5 mins postinjection; type: ADME, organism-based, Macaca fascicularis; conditions: in vivo
[10] = test system: Medulla; experiment: Drug uptake in anesthetized cynomolgus monkey brain medulla after 45 mins postinjection; type: ADME, organism-based, Macaca fascicularis; conditions: in vivo, 0.75 h
[11] = test system: Thalamus; experiment: Drug uptake in anesthetized cynomolgus monkey brain thalamus after 27.5 mins postinjection; type: ADME, organism-based, Macaca fascicularis; design: unit not given here; conditions: in vivo
[12] = Ratio of drug uptake in occipital lobe to cerebellum in anesthetized cynomolgus monkey after 195 mins postinjection; type: ADME, organism-based, Macaca fascicularis; conditions: in vivo, 3.25 h
[13] = Ratio of drug uptake in pons to cerebellum in anesthetized cynomolgus monkey after 95 mins postinjection; type: ADME, organism-based, Macaca fascicularis; conditions: in vivo
[14] = Ratio of drug uptake in frontal lobe to cerebellum in anesthetized cynomolgus monkey after 125 mins postinjection; type: ADME, organism-based, Macaca fascicularis; conditions: in vivo
[15] = Ratio of drug uptake in thalamus to cerebellum in anesthetized cynomolgus monkey after 95 mins postinjection; type: ADME, organism-based, Macaca fascicularis; conditions: in vivo
[16] = test system: Putamen; experiment: Drug uptake in anesthetized cynomolgus monkey brain putamen after 185 mins postinjection; type: ADME, organism-based, Macaca fascicularis; conditions: in vivo
[17] = Drug uptake in anesthetized cynomolgus monkey brain cerebellum after 3.5 mins postinjection; type: ADME, organism-based, Macaca fascicularis; conditions: in vivo
[18] = test system: Caudate; experiment: Drug uptake in anesthetized cynomolgus monkey brain caudate after 9.5 mins postinjection; type: ADME, organism-based, Macaca fascicularis, Caudate nucleus; conditions: in vivo
[19] = test system: Putamen; experiment: Drug uptake in anesthetized cynomolgus monkey brain putamen after 235 mins postinjection; type: ADME, organism-based, Macaca fascicularis; conditions: in vivo
[20] = test system: Pons; experiment: Drug uptake in anesthetized cynomolgus monkey brain pons after 125 mins postinjection; type: ADME, organism-based, Macaca fascicularis; conditions: in vivo
[21] = test system: Caudate; experiment: Drug uptake in anesthetized cynomolgus monkey brain caudate after 235 mins postinjection; type: ADME, organism-based, Macaca fascicularis, Caudate nucleus; conditions: in vivo
[22] = Ratio of drug uptake in caudate to cerebellum in anesthetized cynomolgus monkey after 65 mins postinjection; type: ADME, organism-based, Macaca fascicularis; conditions: in vivo
[23] = test system: Putamen; experiment: Drug uptake in anesthetized cynomolgus monkey brain putamen after 175 mins postinjection; type: ADME, organism-based, Macaca fascicularis; conditions: in vivo
[24] = test system: Pons; experiment: Drug uptake in anesthetized cynomolgus monkey brain pons after 65 mins postinjection; type: ADME, organism-based, Macaca fascicularis; conditions: in vivo
[25] = Ratio of drug uptake in putamen to cerebellum in anesthetized cynomolgus monkey after 6.5 mins postinjection; type: ADME, organism-based, Macaca fascicularis; conditions: in vivo
[26] = test system: Caudate; experiment: Drug uptake in anesthetized cynomolgus monkey brain caudate after 15.5 mins postinjection; type: ADME, organism-based, Macaca fascicularis, Caudate nucleus; conditions: in vivo
[27] = Ratio of drug uptake in frontal lobe to cerebellum in anesthetized cynomolgus monkey after 235 mins postinjection; type: ADME, organism-based, Macaca fascicularis; conditions: in vivo
[28] = test system: Pons; experiment: Drug uptake in anesthetized cynomolgus monkey brain pons after 0.5 mins postinjection; type: ADME, organism-based, Macaca fascicularis; conditions: in vivo
[29] = test system: Pons; experiment: Drug uptake in anesthetized cynomolgus monkey brain pons after 35 mins postinjection; type: ADME, organism-based, Macaca fascicularis; conditions: in vivo
[30] = test system: Putamen; experiment: Drug uptake in anesthetized cynomolgus monkey brain putamen after 105 mins postinjection; type: ADME, organism-based, Macaca fascicularis; design: unit not given here; conditions: in vivo, 1.75 h
[31] = test system: Putamen; experiment: Drug uptake in anesthetized cynomolgus monkey brain putamen after 9.5 mins postinjection; type: ADME, organism-based, Macaca fascicularis; design: unit not given here; conditions: in vivo
[32] = Drug uptake in anesthetized cynomolgus monkey brain cerebellum after 215 mins postinjection; type: ADME, organism-based, Macaca fascicularis; conditions: in vivo
[33] = Ratio of drug uptake in medulla to cerebellum in anesthetized cynomolgus monkey after 135 mins postinjection; type: ADME, organism-based, Macaca fascicularis; conditions: in vivo, 2.25 h
[34] = test system: Putamen; experiment: Drug uptake in anesthetized cynomolgus monkey brain putamen after 195 mins postinjection; type: ADME, organism-based, Macaca fascicularis; conditions: in vivo, 3.25 h
[35] = test system: Medulla; experiment: Drug uptake in anesthetized cynomolgus monkey brain medulla after 215 mins postinjection; type: ADME, organism-based, Macaca fascicularis; conditions: in vivo
[36] = Ratio of drug uptake in medulla to cerebellum in anesthetized cynomolgus monkey after 9.5 mins postinjection; type: ADME, organism-based, Macaca fascicularis; conditions: in vivo
[37] = Ratio of drug uptake in frontal lobe to cerebellum in anesthetized cynomolgus monkey after 205 mins postinjection; type: ADME, organism-based, Macaca fascicularis; conditions: in vivo
[38] = test system: Medulla; experiment: Drug uptake in anesthetized cynomolgus monkey brain medulla after 205 mins postinjection; type: ADME, organism-based, Macaca fascicularis; conditions: in vivo
[39] = test system: Midbrain; experiment: Drug uptake in anesthetized cynomolgus monkey brain midbrain after 85 mins postinjection; type: ADME, organism-based, Macaca fascicularis; design: unit not given here; conditions: in vivo
[40] = test system: Midbrain; experiment: Drug uptake in anesthetized cynomolgus monkey brain midbrain after 75 mins postinjection; type: ADME, organism-based, Macaca fascicularis; design: unit not given here; conditions: in vivo, 1.25 h
[41] = test system: Medulla; experiment: Drug uptake in anesthetized cynomolgus monkey brain medulla after 185 mins postinjection; type: ADME, organism-based, Macaca fascicularis; conditions: in vivo
[42] = test system: Pons; experiment: Drug uptake in anesthetized cynomolgus monkey brain pons after 27.5 mins postinjection; type: ADME, organism-based, Macaca fascicularis; conditions: in vivo
[43] = Drug uptake in anesthetized cynomolgus monkey brain occipital lobe after 2.5 mins postinjection; type: ADME, organism-based, Macaca fascicularis; conditions: in vivo
[44] = test system: Putamen; experiment: Drug uptake in anesthetized cynomolgus monkey brain putamen after 3.5 mins postinjection; type: ADME, organism-based, Macaca fascicularis; conditions: in vivo
[45] = test system: Putamen; experiment: Drug uptake in anesthetized cynomolgus monkey brain putamen after 4.5 mins postinjection; type: ADME, organism-based, Macaca fascicularis; design: unit not given here; conditions: in vivo, 0.075 h
[46] = Drug uptake in anesthetized cynomolgus monkey brain occipital lobe after 18.5 mins postinjection; type: ADME, organism-based, Macaca fascicularis; conditions: in vivo
[47] = Ratio of drug uptake in midbrain to cerebellum in anesthetized cynomolgus monkey after 125 mins postinjection; type: ADME, organism-based, Macaca fascicularis; conditions: in vivo
[48] = Drug uptake in anesthetized cynomolgus monkey brain frontal lobe after 9.5 mins postinjection; type: ADME, organism-based, Macaca fascicularis; conditions: in vivo
[49] = Ratio of drug uptake in midbrain to cerebellum in anesthetized cynomolgus monkey after 215 mins postinjection; type: ADME, organism-based, Macaca fascicularis; conditions: in vivo
[50] = Ratio of drug uptake in occipital lobe to cerebellum in anesthetized cynomolgus monkey after 95 mins postinjection; type: ADME, organism-based, Macaca fascicularis; conditions: in vivo
[51] = Ratio of drug uptake in putamen to cerebellum in anesthetized cynomolgus monkey after 65 mins postinjection; type: ADME, organism-based, Macaca fascicularis; conditions: in vivo
[52] = Ratio of drug uptake in medulla to cerebellum in anesthetized cynomolgus monkey after 12.5 mins postinjection; type: ADME, organism-based, Macaca fascicularis; conditions: in vivo
[53] = test system: Thalamus; experiment: Drug uptake in anesthetized cynomolgus monkey brain thalamus after 35 mins postinjection; type: ADME, organism-based, Macaca fascicularis; design: unit not given here; conditions: in vivo
[54] = test system: Caudate; experiment: Drug uptake in anesthetized cynomolgus monkey brain caudate after 225 mins postinjection; type: ADME, organism-based, Macaca fascicularis, Caudate nucleus; conditions: in vivo, 3.75 h
[55] = test system: Caudate; experiment: Drug uptake in anesthetized cynomolgus monkey brain caudate after 45 mins postinjection; type: ADME, organism-based, Macaca fascicularis, Caudate nucleus; conditions: in vivo, 0.75 h
[56] = test system: Thalamus; experiment: Drug uptake in anesthetized cynomolgus monkey brain thalamus after 45 mins postinjection; type: ADME, organism-based, Macaca fascicularis; design: unit not given here; conditions: in vivo, 0.75 h
[57] = Drug uptake in anesthetized cynomolgus monkey brain cerebellum after 135 mins postinjection; type: ADME, organism-based, Macaca fascicularis; conditions: in vivo, 2.25 h
[58] = test system: Midbrain; experiment: Drug uptake in anesthetized cynomolgus monkey brain midbrain after 215 mins postinjection; type: ADME, organism-based, Macaca fascicularis; conditions: in vivo
[59] = Ratio of drug uptake in frontal lobe to cerebellum in anesthetized cynomolgus monkey after 35 mins postinjection; type: ADME, organism-based, Macaca fascicularis; conditions: in vivo
[60] = Drug uptake in anesthetized cynomolgus monkey brain occipital lobe after 55 mins postinjection; type: ADME, organism-based, Macaca fascicularis; conditions: in vivo
[61] = test system: Midbrain; experiment: Drug uptake in anesthetized cynomolgus monkey brain midbrain after 185 mins postinjection; type: ADME, organism-based, Macaca fascicularis; conditions: in vivo
[62] = test system: Midbrain; experiment: Drug uptake in anesthetized cynomolgus monkey brain midbrain after 45 mins postinjection; type: ADME, organism-based, Macaca fascicularis; design: unit not given here; conditions: in vivo, 0.75 h
[63] = Ratio of drug uptake in medulla to cerebellum in anesthetized cynomolgus monkey after 0.5 mins postinjection; type: ADME, organism-based, Macaca fascicularis; conditions: in vivo
[64] = Drug uptake in anesthetized cynomolgus monkey brain occipital lobe after 205 mins postinjection; type: ADME, organism-based, Macaca fascicularis; conditions: in vivo
[65] = test system: Pons; experiment: Drug uptake in anesthetized cynomolgus monkey brain pons after 215 mins postinjection; type: ADME, organism-based, Macaca fascicularis; conditions: in vivo
[66] = Ratio of drug uptake in caudate to cerebellum in anesthetized cynomolgus monkey after 155 mins postinjection; type: ADME, organism-based, Macaca fascicularis; conditions: in vivo
[67] = Drug uptake in anesthetized cynomolgus monkey brain frontal lobe after 85 mins postinjection; type: ADME, organism-based, Macaca fascicularis; conditions: in vivo
[68] = test system: Medulla; experiment: Drug uptake in anesthetized cynomolgus monkey brain medulla after 55 mins postinjection; type: ADME, organism-based, Macaca fascicularis; conditions: in vivo

Work on O=C(OCC[18F])C1C2CCC(CC1c1cccc(/C=C\Br)c1)N2 (stereo not drawn) yielded a Drug uptake [1] of 0.67, a Drug uptake [2] of 4.21 and a Drug uptake [3] of 2.88. It also gave a Drug uptake [4] of 2.8, a Drug uptake [5] of 4.36 and a Drug uptake [6] of 2.78. The Drug uptake [7] was 3.45, the Ratio [8] was 1.5 and the Ratio [9] was 1.3. It also gave a Drug uptake [10] of 4.87, a Drug uptake [11] of 3.94 and a Ratio [12] of 1.1. For the same compound, the Ratio [13] was 1.4, the Ratio [14] was 1 and the Ratio [15] was 1.4. The Drug uptake [16] was 3.68, the Drug uptake [17] was 1.14 and the Drug uptake [18] was 2.36. The Drug uptake [19] was 2.98, the Drug uptake [20] was 4.27 and the Drug uptake [21] was 2.53. It also gave a Ratio [22] of 1.2, a Drug uptake [23] of 3.76 and a Drug uptake [24] of 4.56. The Ratio [25] was 1.1, the Drug uptake [26] was 2.89 and the Ratio [27] was 1.2. It also gave a Drug uptake [28] of 0.01, a Drug uptake [29] of 4.22 and a Drug uptake [30] of 4.82. The Drug uptake [31] was 3.59, the Drug uptake [32] was 1.78 and the Ratio [33] was 1.7. For the same compound, the Drug uptake [34] was 3.53, the Drug uptake [35] was 3.04 and the Ratio [36] was 1.2. The Ratio [37] was 1.1, the Drug uptake [38] was 3.14 and the Drug uptake [39] was 4.9. It also gave a Drug uptake [40] of 4.96, a Drug uptake [41] of 3.61 and a Drug uptake [42] of 4.1. It also gave a Drug uptake [43] of 0.36, a Drug uptake [44] of 1 and a Drug uptake [45] of 1.72. For the same compound, the Drug uptake [46] was 2.89, the Ratio [47] was 1.8 and the Drug uptake [48] was 2.06. It also gave a Ratio [49] of 2.1, a Ratio [50] of 1 and a Ratio [51] of 1.5. It also gave a Ratio [52] of 1.2, a Drug uptake [53] of 3.89 and a Drug uptake [54] of 2.93. It also gave a Drug uptake [55] of 3.83, a Drug uptake [56] of 4.15 and a Drug uptake [57] of 2.43. The Drug uptake [58] was 3.76, the Ratio [59] was 0.7 and the Drug uptake [60] was 3.49. The Drug uptake [61] was 4.14, the Drug uptake [62] was 4.82 and the Ratio [63] was 0.6. For the same compound, the Drug uptake [64] was 2.28, the Drug uptake [65] was 3.22 and the Ratio [66] was 1.6. The Drug uptake [67] was 2.88 and the Drug uptake [68] was 4.82.
